Assay results reported in the supplement of paper PMC7017272.
± gives the standard deviation of the averaged measurements.

Key:
Conditions in all cases: treatment time: 3 days
[1] = system: UT-SCC-24A; experiment: maximal % inhibition of viability relative to DMSO; higher = stronger effect
Description: (§1)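 HNSCC cell lines (500 cells/well, 384-well) were cultured on plastic, on top of (2D) or embedded (3D) in Matrigel or human leiomyoma matrix Myogel (500 ug/mL; Myogel 3D mixed with rat collagen I). Cells were treated for 3 days with 5 ten-fold concentrations of each drug, and viability was read by CellTiter-Glo. Viability was normalised to DMSO (0% inhibition) and 100 uM benzethonium chloride (100% inhibition) controls and fitted with the FIMM DSRT pipeline to give IC50 (nM), maximal % inhibition and the drug sensitivity score (DSS). Suffixes _1/_2/_3 on drug names are replicates.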

[2] = system: UT-SCC-24A; experiment: drug sensitivity score (DSS); higher = more sensitive
Description: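 HNSCC cell lines (500 cells/well, 384-well) were cultured on plastic, on top of (2D) or embedded (3D) in Matrigel or human leiomyoma matrix Myogel (500 ug/mL; Myogel 3D mixed with rat collagen I). Cells were treated for 3 days with 5 ten-fold concentrations of each drug, and viability was read by CellTiter-Glo. Suffixes _1/_2/_3 on drug names are replicates.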

[3] = system: UT-SCC-8; experiment: drug sensitivity score (DSS); higher = more sensitive; extreme values may be limits of the assay
Procedure, shortened: (§2)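 Viability of HPV-negative HNSCC cell lines was measured by CellTiter-Glo 2.0 luminescence. Cells were seeded at 500 cells/well in 384-well plates on plastic, on Matrigel- or Myogel-coated wells (500 µg/mL), or embedded in Matrigel or Myogel plus rat collagen I, then given compounds at five 10-fold concentrations for 3 days, with signals normalised to vehicle (0.1% DMSO) and cell-killing control wells. Fitting of percent-inhibition dose–response curves in the FIMM pipeline yielded IC50, maximal inhibition and drug sensitivity score.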

[4] = system: UT-SCC-73; experiment: as above
Procedure, shortened: as §2

[5] = system: UT-SCC-40; experiment: as above
Procedure, shortened: as §2

[6] = system: UT-SCC-14; experiment: as above
Procedure, shortened: as §2

[7] = system: UT-SCC-42B; experiment: as above
Procedure, shortened: as §2

[8] = system: UT-SCC-24B; experiment: as above
Procedure, shortened: as §2

[9] = system: UT-SCC-28; experiment: as above
Procedure, shortened: as §2

[10] = system: UT-SCC-42A; experiment: as above
Procedure, shortened: as §2

[11] = system: UT-SCC-106A; experiment: as above
Procedure, shortened: as §2

[12] = system: UT-SCC-44; experiment: as above
Procedure, shortened: as §2

[13] = system: UT-SCC-81; experiment: as above
Procedure, shortened: as §2

[14] = system: UT-SCC-14; experiment: maximal % inhibition of viability relative to DMSO; higher = stronger effect
Description: as §1, with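 “DMSO” for “DMSO (0% inhibition)”, “and” for “and 100 uM”, “chloride” for “chloride (100% inhibition)”, “DSS.” for “the drug sensitivity score (DSS).”, “_1/_2/_3” for “_1/_2/_3 on drug names”, “replicates. Only inhibition-mode (IC50) fits are kept.” for “replicates.”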

[15] = system: UT-SCC-42B; experiment: as above
Description: as §1, with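 “DMSO” for “DMSO (0% inhibition)”, “and” for “and 100 uM”, “chloride” for “chloride (100% inhibition)”, “DSS.” for “the drug sensitivity score (DSS).”, “_1/_2/_3” for “_1/_2/_3 on drug names”, “replicates. Only inhibition-mode (IC50) fits are kept.” for “replicates.”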

[16] = system: UT-SCC-81; experiment: as above
Description: as §1, with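 “DMSO” for “DMSO (0% inhibition)”, “and” for “and 100 uM”, “chloride” for “chloride (100% inhibition)”, “DSS.” for “the drug sensitivity score (DSS).”, “_1/_2/_3” for “_1/_2/_3 on drug names”, “replicates. Only inhibition-mode (IC50) fits are kept.” for “replicates.”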

[17] = system: UT-SCC-24A; experiment: relative IC50 (midpoint of the fitted curve; maximal inhibition may be below 50%); higher = less potent
Description: as §1

[18] = culture condition: embedded in Matrigel
[19] = culture condition: embedded in Myogel + collagen I
[20] = culture condition: on top of Matrigel
[21] = culture condition: on top of Myogel
[22] = culture condition: plastic 2D (no matrix)

Compound: CO[C@H]1C[C@@H]2CC[C@@H](C)[C@@](O)(O2)C(=O)C(=O)N2CCCC[C@H]2C(=O)O[C@H]([C@H](C)C[C@@H]2CC[C@@H](OP(C)(C)=O)[C@H](OC)C2)CC(=O)[C@H](C)/C=C(\C)[C@@H](O)[C@@H](OC)C(=O)[C@H](C)C[C@H](C)/C=C/C=C/C=C/1C [Ridaforolimus]
- maximal % inhibition of viability [1, 18]: 56.1 ± 36%
- maximal % inhibition of viability [1, 19]: 35.7 ± 4%
- maximal % inhibition of viability [1, 20]: 29.4 ± 3.8%
- maximal % inhibition of viability [1, 21]: 32.7 ± 3.6%
- maximal % inhibition of viability [1, 22]: 33 ± 5.9%
- drug sensitivity score [2, 18]: 10.2 ± 10 DSS
- drug sensitivity score [2, 19]: 5.43 ± 0.71 DSS
- drug sensitivity score [2, 20]: 4.57 ± 1.2 DSS
- drug sensitivity score [2, 21]: 5.03 ± 1.4 DSS
- drug sensitivity score [2, 22]: 5.87 ± 0.67 DSS
- drug sensitivity score [3, 18]: 9.67 ± 4 DSS
- drug sensitivity score [3, 19]: 4.03 ± 1 DSS
- drug sensitivity score [3, 20]: 9.27 ± 3.7 DSS
- drug sensitivity score [3, 21]: 12.5 ± 4.2 DSS
- drug sensitivity score [3, 22]: 10.2 ± 3.6 DSS
- drug sensitivity score [4, 18]: 7.23 ± 3 DSS
- drug sensitivity score [4, 19]: 8.57 ± 6 DSS
- drug sensitivity score [4, 20]: 6.9 ± 1.3 DSS
- drug sensitivity score [4, 21]: 8 ± 0.79 DSS
- drug sensitivity score [4, 22]: 4.93 ± 0.94 DSS
- drug sensitivity score [5, 18]: 4.97 ± 2.8 DSS
- drug sensitivity score [5, 19]: 7.83 ± 3.9 DSS
- drug sensitivity score [5, 20]: 4.8 ± 0.78 DSS
- drug sensitivity score [5, 21]: 4.23 ± 0.46 DSS
- drug sensitivity score [5, 22]: 3.77 ± 0.47 DSS
- drug sensitivity score [6, 18]: 13.8 ± 3.1 DSS
- drug sensitivity score [6, 19]: 15.2 ± 1.2 DSS
- drug sensitivity score [6, 20]: 12.9 ± 1.5 DSS
- drug sensitivity score [6, 21]: 13 ± 2.4 DSS
- drug sensitivity score [6, 22]: 11.9 ± 2.8 DSS
- drug sensitivity score [7, 18]: 0.8 ± 0.76 DSS
- drug sensitivity score [7, 20]: 0.233 ± 0.4 DSS
- drug sensitivity score [7, 21]: 0.367 ± 0.4 DSS
- drug sensitivity score [7, 22]: 0.4 ± 0.36 DSS
- drug sensitivity score [8, 18]: 2.9 ± 2.8 DSS
- drug sensitivity score [8, 19]: 7.87 ± 0.8 DSS
- drug sensitivity score [8, 20]: 3.8 ± 0.66 DSS
- drug sensitivity score [8, 21]: 4.63 ± 1.4 DSS
- drug sensitivity score [8, 22]: 5.37 ± 2 DSS
- drug sensitivity score [9, 18]: 4.87 ± 2.8 DSS
- drug sensitivity score [9, 19]: 4.37 ± 4 DSS
- drug sensitivity score [9, 20]: 6.87 ± 2.6 DSS
- drug sensitivity score [9, 22]: 6.37 ± 3.5 DSS
- drug sensitivity score [10, 18]: 3.43 ± 0.55 DSS
- drug sensitivity score [10, 19]: 5.73 ± 1.1 DSS
- drug sensitivity score [10, 20]: 6.43 ± 1.4 DSS
- drug sensitivity score [10, 21]: 5.2 ± 1.3 DSS
- drug sensitivity score [10, 22]: 5.6 ± 2.1 DSS
- drug sensitivity score [11, 18]: 4.2 ± 1.4 DSS
- drug sensitivity score [11, 19]: 2.63 ± 0.21 DSS
- drug sensitivity score [11, 20]: 6.4 ± 3.5 DSS
- drug sensitivity score [11, 21]: 2.9 ± 1.1 DSS
- drug sensitivity score [11, 22]: 7.57 ± 1.7 DSS
- drug sensitivity score [12, 18]: 6.7 ± 3.6 DSS
- drug sensitivity score [12, 19]: 6.23 ± 0.99 DSS
- drug sensitivity score [12, 20]: 10.7 ± 2.2 DSS
- drug sensitivity score [12, 21]: 11.2 ± 1.4 DSS
- drug sensitivity score [12, 22]: 9.63 ± 3 DSS
- drug sensitivity score [13, 18]: 8.6 ± 4.5 DSS
- drug sensitivity score [13, 19]: 11.8 ± 3.1 DSS
- drug sensitivity score [13, 20]: 9.37 ± 2.3 DSS
- drug sensitivity score [13, 21]: 10.9 ± 4 DSS
- drug sensitivity score [13, 22]: 8.77 ± 5 DSS
- maximal % inhibition of viability [14, 18]: 53.4 ± 6.2%
- maximal % inhibition of viability [14, 19]: 57.5 ± 6.6%
- maximal % inhibition of viability [14, 20]: 54.5 ± 9.4%
- maximal % inhibition of viability [14, 21]: 48.6 ± 5.5%
- maximal % inhibition of viability [14, 22]: 50.7 ± 12%
- maximal % inhibition of viability [15, 18]: 16.8 ± 7.8%
- maximal % inhibition of viability [15, 20]: 14.9 ± 2.2%
- maximal % inhibition of viability [15, 21]: 14.2 ± 3.1%
- maximal % inhibition of viability [15, 22]: 14.5 ± 1.9%
- maximal % inhibition of viability [16, 18]: 50 ± 11%
- maximal % inhibition of viability [16, 19]: 64 ± 9.1%
- maximal % inhibition of viability [16, 20]: 43.9 ± 1.1%
- maximal % inhibition of viability [16, 21]: 54.6 ± 4.2%
- maximal % inhibition of viability [16, 22]: 48.4 ± 5.3%
- relative IC50 [17, 19]: 2.61 nM
- relative IC50 [17, 21]: 3.5 nM
- relative IC50 [17, 22]: 1.98 nM
